The values that follow come from PubChem BioAssay (NCI).

“And” between values parts separate entries of the source, which are not always exact repeats. Equal entries are not always repeated.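 All cell lines were grown in 96-well plates and treated with compound for 48 hours. At the GI50, growth is halved. At the TGI there is no net growth.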

Test systems include 786-0 renal; HCT-15 colon; NCI-H226 lung; OVCAR-3 ovarian; SF-539 CNS; SK-MEL-2 melanoma; SK-MEL-5 melanoma; SN12C renal; RXF 393 renal; MDA-MB-231 breast.
Experiment in all cases: inhibition of tumour cell growth, NCI panel, 48 h

Take `COc1ccc(NC(=O)C(=O)NNC(=O)c2sc(NNC(C)=O)nc2C)c([N+](=O)[O-])c1`: the TGI in the experiment on 786-0 renal, with HCT-15 colon, in the experiment with NCI-H226 lung, in the experiment on OVCAR-3 ovarian, in the experiment on SF-539 CNS and in the experiment on SK-MEL-2 melanoma was above 100 µM each time. The TGI in the experiment with SK-MEL-5 melanoma and in the experiment on SN12C renal was above 100 µM in each case.
On to `CCC(C(=O)[O-])C(=O)[O-].CCC(C(=O)[O-])C(=O)[O-].N.N.NCCCCCN.[Pt+4].[Pt+4]`, for which the GI50 with 786-0 renal was above 100 µM; in the experiment on HCT-15 colon it was above 100 µM; in the experiment with NCI-H226 lung it was 23.4 µM; in the experiment on OVCAR-3 ovarian, above 100 µM; with RXF 393 renal, above 100 µM; in the experiment with SF-539 CNS it was above 100 µM. Besides, the GI50 with SK-MEL-2 melanoma was above 100 µM; in the experiment with SK-MEL-5 melanoma, above 100 µM; in the experiment on SN12C renal, 15 µM. Also, the TGI is above 100 µM with 786-0 renal; above 100 µM in the experiment on HCT-15 colon; 94.7 µM in the experiment with NCI-H226 lung; above 100 µM with OVCAR-3 ovarian; above 100 µM with RXF 393 renal; above 100 µM with SF-539 CNS. Also, the TGI with SK-MEL-2 melanoma is above 100 µM; with SK-MEL-5 melanoma it was above 100 µM; with SN12C renal it was 87.3 µM.
Consider `NC(=O)c1csc(C2C=CC(CO)O2)n1` (stereo unspecified), for which the TGI was above 100 µM in the experiment on 786-0 renal; above 100 µM with HCT-15 colon; above 100 µM in the experiment on NCI-H226 lung; above 10 µM in the experiment on OVCAR-3 ovarian; above 100 µM in the experiment on SF-539 CNS; above 100 µM with SK-MEL-2 melanoma. In the experiment on SN12C renal, this compound had a TGI above 100 µM.
Regarding `O=C1CC2CCCCC2=C1O` (stereo unspecified), the TGI with 786-0 renal, in the experiment with HCT-15 colon, with OVCAR-3 ovarian, in the experiment on RXF 393 renal, in the experiment on SF-539 CNS and in the experiment with SK-MEL-2 melanoma was above 100 µM throughout. The TGI in the experiment on SK-MEL-5 melanoma and in the experiment on SN12C renal was above 100 µM each time.
On to `Cc1ccc(NC(=O)CC(=O)n2nc(-c3ccccc3)c(N=Nc3ccc(Cl)cc3)c2-c2ccccc2)cc1`, for which the TGI in the experiment with 786-0 renal was 45.2 µM; in the experiment on HCT-15 colon, above 100 µM; with NCI-H226 lung, above 100 µM; in the experiment on OVCAR-3 ovarian, above 100 µM; in the experiment with SF-539 CNS, 85.6 µM; with SK-MEL-2 melanoma, above 100 µM. Moreover, the TGI in the experiment with SK-MEL-5 melanoma and in the experiment with SN12C renal was above 100 µM in each case.
`C/C(=N\NC(=O)CC(=O)Nc1ccc(Cl)cc1)c1cc2ccccc2oc1=O`: the TGI in the experiment with 786-0 renal, in the experiment with HCT-15 colon, in the experiment with NCI-H226 lung, in the experiment with OVCAR-3 ovarian, with RXF 393 renal and in the experiment with SF-539 CNS was above 100 µM throughout. Further, the TGI in the experiment on SK-MEL-5 melanoma and with SN12C renal was above 100 µM in each case.
Consider `Cc1ccc(NS(=O)(=O)c2cc(C(C)(C)C)ccc2OCCOCCOCCOc2ccc(C(C)(C)C)cc2S(=O)(=O)Nc2ccc(C)cc2)cc1`, for which the TGI with 786-0 renal, in the experiment on HCT-15 colon, in the experiment with NCI-H226 lung, in the experiment on OVCAR-3 ovarian, in the experiment on RXF 393 renal and in the experiment with SF-539 CNS was above 100 µM each time. Further, the TGI in the experiment with SK-MEL-2 melanoma, with SK-MEL-5 melanoma and with SN12C renal was above 100 µM throughout.
Regarding `O=C(CC/C(C/C(=N/O)c1ccc(F)cc1)=N/O)N(Cc1ccccc1)Cc1ccccc1`, the TGI in the experiment on 786-0 renal, in the experiment with HCT-15 colon, with NCI-H226 lung, in the experiment with OVCAR-3 ovarian, with RXF 393 renal and with SF-539 CNS was above 100 µM in each case. Further, the TGI in the experiment with SK-MEL-2 melanoma, in the experiment with SK-MEL-5 melanoma and in the experiment with SN12C renal was above 100 µM each time.
As for `Cc1ccc(S(=O)(=O)CNC(=S)CCCC(=S)NCS(=O)(=O)c2ccc(C)cc2)cc1`, the TGI in the experiment with 786-0 renal, in the experiment on HCT-15 colon, in the experiment on NCI-H226 lung, in the experiment on OVCAR-3 ovarian, in the experiment on RXF 393 renal and in the experiment with SF-539 CNS was above 100 µM each time. For the same compound, the TGI with SK-MEL-5 melanoma and in the experiment on SN12C renal was above 100 µM each time.
As for `N#Cc1c[nH]n2ccnc12`, the TGI in the experiment on 786-0 renal, in the experiment on HCT-15 colon, in the experiment on MDA-MB-231 breast, with NCI-H226 lung, with OVCAR-3 ovarian and in the experiment with SK-MEL-2 melanoma was above 100 µM in each case. Moreover, the TGI in the experiment on SK-MEL-5 melanoma and with SN12C renal was above 100 µM each time.
With `Cc1ccc(S(=O)(=O)N2CCC3(C(/C=C/c4ccccc4)=Nc4ccccc43)C2c2ccccc2)cc1` (stereo unspecified), the TGI with 786-0 renal, in the experiment on HCT-15 colon, with NCI-H226 lung, in the experiment on OVCAR-3 ovarian, in the experiment with RXF 393 renal and in the experiment on SF-539 CNS was above 100 µM in each case. For the same compound, the TGI in the experiment on SK-MEL-5 melanoma and with SN12C renal was above 100 µM in each case.
On to `CC1=C(C(=O)Nc2ccccc2C)C(c2ccc([N+](=O)[O-])cc2)C(C(=O)Nc2ccccc2C)=C(C)N1`, for which the TGI in the experiment with 786-0 renal is above 100 µM; with HCT-15 colon, above 100 µM; in the experiment with NCI-H226 lung it was above 100 µM; in the experiment on OVCAR-3 ovarian, above 100 µM; in the experiment on RXF 393 renal it was 88.2 µM; with SF-539 CNS, above 100 µM. Besides, the TGI in the experiment on SK-MEL-2 melanoma, in the experiment on SK-MEL-5 melanoma and in the experiment on SN12C renal was above 100 µM in each case.
In the case of `CC(=O)OCC1OC(OC2CC3C(C)(C)C(OC(C)=O)CC[C@]3(C)C3CCC45CC4(CC[C@H]5C(C)CC(O)C4OC4(C)C)[C@]23C)C(O)C(O)C1O` (stereo partly specified), the GI50 in the experiment on 786-0 renal was 3.58 µM; in the experiment on HCT-15 colon, 4.04 µM; with SF-539 CNS it was 2.47 µM; with SK-MEL-2 melanoma it was 4.29 µM; in the experiment on SN12C renal it was 4.44 µM. Also, the TGI in the experiment with 786-0 renal was 10.6 µM and 14.1 µM; in the experiment with HCT-15 colon, 6 µM and 13.3 µM; in the experiment on NCI-H226 lung, 11.6 µM; in the experiment with OVCAR-3 ovarian, 8.76 µM and 7.08 µM; in the experiment with RXF 393 renal, 4 µM; in the experiment on SF-539 CNS, 8.92 µM and 6.62 µM. The TGI in the experiment on SK-MEL-2 melanoma was 6.17 µM and 14.6 µM; in the experiment on SK-MEL-5 melanoma, 5.79 µM; with SN12C renal, 8.75 µM and 14.9 µM.
For the compound `CCCCCCCCCCCCCC/C(C(=O)OC)=C(/O)C(=O)OCC`, the TGI is 38.2 µM in the experiment on 786-0 renal; 36.3 µM in the experiment with HCT-15 colon; above 100 µM in the experiment on NCI-H226 lung; above 100 µM in the experiment with OVCAR-3 ovarian; above 100 µM with RXF 393 renal; above 100 µM in the experiment on SF-539 CNS. For the same compound, the TGI in the experiment with SK-MEL-2 melanoma was 32 µM; in the experiment with SK-MEL-5 melanoma, above 100 µM; in the experiment on SN12C renal it was above 100 µM.
